Source: patent US20130225404A1, “PESTICIDAL COMBINATIONS” (SYNGENTA PARTICIPATIONS AG, priority 2010, published 2013)

Tested on: rice plants
Experiment: Safening of rice grown from treated seeds against clodinafop herbicide, greenhouse tray test
Assay type: in vivo
Conditions: rice seed treatment; for Av. shoot weight: average dry shoot weight five weeks after the clodinafop treatment; for Av. plant height: determined five weeks after the clodinafop treatment
Method: Various batches of treated rice seeds were sown in soil contained in trays (0.0425 m^2) at a rice density of 120 kg/ha and their growth monitored in a green house (at 25° C. during the day and 23° C. during the nght). The amounts of the active ingredients, i.e. thiamethoxam (Cruiser 350FS) and N-(2-methoxybenzoyl)-4-[(methylaminocarbonyl)amino]benzene-sulfonamide (safener) used for the rice seed treatment are indicated in the table below. The trays were flooded with water three days after sowing. Nine days after sowing the rice plants were sprayed with the herbicide clodinafop in an amount equal to 100 g/ha. The average plant height and the average dry shoot weight were determined five weeks after the clodinafop treatment.
A similar procedure was performed on untreated seeds except that the clodinafop treatment was omitted (control).
The same procedure as descrbed above was repeated except that the rice plants were treated with the herbicide clodinafop fifteen days after sowing.

[1] = clodinafop 100 g/ha sprayed 9 days after sowing
[2] = clodinafop 100 g/ha sprayed 15 days after sowing

SMILES | Av. shoot weight [1] [mg] | Av. plant height [1] [cm] | Av. shoot weight [2] [mg] | Av. plant height [2] [cm]
CNC(=O)Nc1ccc(S(=O)(=O)NC(=O)c2ccccc2OC)cc1 [A, N-(2-methoxybenzoyl)-4-[(methylaminocarbonyl)amino]benzene-sulfonamide] | 230 | 24 | 400 | 35
CNC(=O)Nc1ccc(S(=O)(=O)NC(=O)c2ccccc2OC)cc1 [C, N-(2-methoxybenzoyl)-4-[(methylaminocarbonyl)amino]benzene-sulfonamide] | 300 | 30 | 510 | 40
